# From a melting point compilation (Tetko et al.; mined from patent text by program, amines drawn as free bases though some values may be those of a salt)
row,melting point [°C],SMILES
1,159 to 161,CCOCc1nc2c(N)nc3ccccc3c2n1CC1(OCCS(C)(=O)=O)CCCCC1
2,84 to 85,CC(CC(=O)O)CC(=O)CCCCCCCCCCC(=O)O (stereo not drawn)
3,110 to 112,CON=C(C(N)=NO)c1ccccc1COc1ccccc1C
4,168,Cc1c(NC(=O)c2ccc(OCC3CC3)cc2)ccc2cc(CN3CCCC3)cnc12
5,172 to 174,Cc1cccc2ncc(C(=O)NC3CCCCCC3)c(=O)n12
6,178 to 179,N#Cc1cccc(-c2ccc(=O)n(Cc3cccc(-c4ncc(Br)cn4)c3)n2)c1
7,166,CCOC(=O)c1cn(CC)c2cc(Cl)c(Br)cc2c1=O
8,188 to 190,Cn1ncnc1COc1nn2c(-c3ccccc3F)nncc2c1-c1ccco1
9,241 to 242,O=C1Nc2ccc(Br)cc2C2(c3ccccn3)OCCN12 (stereo not drawn)
10,67 to 69,CCOC(=O)c1oc2cccc(OC)c2c1C
11,127 to 129,CCN(C)c1ccc2c(c1)CNC2=O
12,216 to 218,CC(=O)N1CCn2nc(-c3ccc(F)cc3)c(-c3ccncc3)c2N1
13,156 to 160,CCOCc1nc2c(N)nc(C)cc2n1CCCCNC(=O)N1CCOCC1
14,167 to 168,COc1ccc(OC)c2cc3c(cc12)C1OC3C2=C1CCC(C(C)=O)C2 (stereo not drawn)
15,205,CC(O)c1nc2c(C(F)(F)F)cccc2c(O)c1C(=O)Nc1nccs1 (stereo not drawn)
16,107 to 108,O=C(O)c1cc(OCc2ccccc2)ccc1OCc1ccccc1
17,205 to 206,Cc1cc(O)c(C(=O)Nc2ccc(S(=O)(=O)C(F)(F)F)cc2Cl)c(C)c1S(C)=O (stereo not drawn)
18,133 to 134,O=[N+]([O-])c1cccc(Oc2cccc3cccnc23)c1
19,79 to 92,Clc1ccc2c(c1)N=C(N1CCN[C@@H](Cc3ccccc3)C1)c1ccccc1N2
20,> 300,Cc1[nH]c(=O)c(C#N)c2c1CC(c1ccccn1)CC2 (stereo not drawn)
21,115 to 117,CC[Si](CC)(Cc1ccc(N(c2ccccc2)c2ccccc2)cc1)Cc1ccc(N(c2ccccc2)c2ccccc2)cc1
22,275,Cc1nn(-c2ccc3cc(-c4ccc(C(=O)Cl)cc4)oc3c2)nc1-c1ccccc1
23,61.5 to 62.5,O=C=Nc1ccc(OCc2nc(Cl)ccc2Cl)cc1
24,238 to 240,Cc1ccc(NC(=S)NCc2ccc3c(c2)CN(C2CCC(=O)NC2=O)C3=O)cc1C(F)(F)F (stereo not drawn)
25,114 to 117,O=C(NCCC12CC3CC(CC(C3)C1)C2)c1cc(-c2ccccc2C(=O)O)ccc1Cl

row,melting point [°C],SMILES
1,81 to 83,O=[N+]([O-])c1ccc(OCc2ccccc2)c(CO)c1
2,140 to 141,O=CN(O)C(CC1CCC2(CC1)OCCO2)CS(=O)(=O)c1ccc(Oc2ccc(OC(F)(F)F)cc2)cc1 (stereo not drawn)
3,123 to 124,CCOC(=O)C(Oc1nc(OC)cc(OC)n1)C(C)(C)c1ccccc1 (stereo not drawn)
4,132 to 133,Cc1nc(C)c(C(C)(O)c2ccsc2)o1 (stereo not drawn)
5,> 250,CN1C(=O)N(c2ccc(Cl)cc2)S(=O)(=O)c2ccc(O)cc21
6,192,CCOC(=O)c1nc2scc(CN=[N+]=[N-])c2c(=O)[nH]1
7,187 to 192,OCCN1CCN(C2=Nc3ccccc3Oc3cscc32)CC1
8,320,O=C(O)c1ccc(-n2cc(C3c4ccccc4C=Cc4ccccc43)c(=S)[nH]c2=O)cc1
9,91 to 92,CCc1c(Oc2cc(C)cc(C)c2)[nH]c(=O)[nH]c1=O
10,168 to 172,OC[C@H](O)[C@H](O)COc1nc(N2CCNCC2)nc2ccccc12 (racemic)
11,94 to 98,CC(=O)Oc1cc(C(C)C)ccc1C1(OC(C)=O)C(=O)c2cccc([N+](=O)[O-])c2C1=O (stereo not drawn)
12,248 to 249,CNC(=O)c1n[nH]cc1NC(=O)c1ccccn1
13,113 to 115,COc1cc(Cl)c2c(-c3ccccc3F)noc2c1
14,92 to 101,COc1c(Nc2ncc3ccc(-c4ccccc4N(C)S(C)(=O)=O)n3n2)cccc1C1CCN(C)CC1
15,143 to 146,Nc1nc(NC2CCc3ccccc32)c2ncn(C3OC(CO)C(O)C3O)c2n1 (stereo not drawn)
16,151 to 152,CCCCCCCCCCNC(=O)C=Cc1cccc(N2CC(C(=O)O)CC2=O)c1 (stereo not drawn)
17,284 to 286,CC1=C(c2cccc(C(F)(F)F)c2)n2ncc3c(=O)nc(NC(C)C)n(c32)C1
18,102 to 104,COc1cc(C(=O)c2cccs2)cc([N+](=O)[O-])c1OC
19,115 to 119,C[C@@H](NC(=O)c1c(N)cc(Cl)cc1Cl)c1ccccc1
20,129 to 133,C[C@H]1Oc2ccc(F)cc2N(C)C(=O)[C@H]1NC(=O)OC(C)(C)C
21,115,COC(=O)C(=Cc1cccc(O)c1)NC(C)=O
22,82 to 83,COc1ccc2cc(C#N)sc2c1
23,187,Cc1cc(C(O)=S)c(Cl)cc1Cl
24,188 to 190,CNc1cc(OC)c(C(=O)NCC23CCCN(CCC2)C3)cc1Cl
25,70,CN(C)C(=O)Sc1ccccc1C#N

row,melting point [°C],SMILES
1,239 to 241,CC(C)CN1C(=O)C2=C3SC(S(N)(=O)=O)=CC1CC(C2)S3(=O)=O (stereo not drawn)
2,180 to 181,CCCCNC(=O)C(=O)Nc1ccc(OC)cc1N
3,114 to 116,Cc1ccc(N=C=C2C=CC=CN2)c(C)c1[N+](=O)[O-]
4,55 to 57,CCCCCCCCC(O)Cc1ccc(OCc2ccccc2)c(OCc2ccccc2)c1 (stereo not drawn)
5,148 to 149,O=C(NC1CCCCC1)c1ccccc1I
6,116 to 117,Cc1cc(Nc2ccn(-c3ccccc3)n2)cc(C)c1OC(=O)CC#N
7,144 to 146,CC(C)NC1=NS(=O)(=O)c2c(Cl)cccc2N1
8,156 to 158,CC(C)(C)c1cc(CCc2ccccc2NC(=O)NC2CCN(Cc3cccnc3)CC2)cc(C(C)(C)C)c1O
9,> 250,O=C(Nc1cccc2c(NN3CCOC3=O)ccnc12)c1c(Cl)cccc1Cl
10,127 to 129,CCOc1cc(N)c(Cl)cc1C(=O)NC[C@H]1CN(CC2CCN(C(=O)N(C)OC)CC2)CCO1
11,311 to 316,CC1(C)C(=O)Nc2cc3[nH]c(-c4ccco4)nc3cc21
12,156,CCCn1c2c(c3c4c(-c5ccccc5)csc4ccc31)CN(C)CC2
13,204 to 206,COc1ccc2nc(COc3ccc(CC(C)C(N)=S)cc3)n(C)c2c1 (stereo not drawn)
14,201 to 203,O=C(Oc1ccc(OC(=O)c2cc(O)cc(O)c2)c2ccccc12)c1cc(O)cc(O)c1
15,159 to 163,COCCOc1cc2nccc(Oc3cccc(O)c3)c2cc1C#N
16,121 to 122,O=C(Nc1ccc(-n2ccnn2)c(F)c1)OCc1ccccc1
17,211 to 214,CCOC(=O)CSc1nc(O)c(C)c(O)n1
18,189 to 190,Cn1ncnc1COc1nn2c(-c3ccccc3F)nnc2cc1-c1cccs1
19,67 to 69,CCC(=O)C(Cc1cc(C#N)cc(C#N)c1)C(=O)CC
20,46 to 51,CCN(CC)C(=O)n1cnc(S(=O)(=O)CC2CCCCCC2)n1
21,83 to 85,CN(C)Cc1ccc(CSCCN=CNS(=O)(=O)c2ccccc2)o1
22,35.2 to 38,C[C@H]1CCCC(C)(C)[C@@H]1C(=O)c1c(F)c(F)c(F)c(F)c1F
23,44 to 47,O=S1(=O)N=Cc2ccccc2O1
24,48.5 to 49.5,CCCCC#CCC#CCC#CCCCCCCC(=O)O
25,192 to 194,CC(C)(C)c1ccc(/C=N/OCCCOc2ccc(C(=O)O)c(NC(=O)c3ccc(C(C)(C)C)cc3)c2)cc1

row,melting point [°C],SMILES
1,75 to 80,CC(=O)OC1OCC[C@@H]1NC(=O)[C@@H](N)CC(C)C (stereo partly drawn)
2,115 to 118,CCCCCCCCCC(C)NC(=O)C=C(C)c1cccc(NC(=O)CCCC(=O)O)c1 (stereo not drawn)
3,148,O=S(=O)(Cc1ccccc1)c1ccc(Cl)cc1
4,149 to 151,CCOc1ccc(CC(NC(C)=O)C(=O)O)cc1OCC (stereo not drawn)
5,158 to 159,COCCOc1cc2ncc(C#N)c(Nc3cc(OC)c(Cl)cc3Cl)c2cc1OCCN1CCOCC1
6,138 to 140,CC(=O)SCc1nccc(SCCCSc2ccc3ncc([N+](=O)[O-])n3n2)c1C
7,78,COC(=O)C(C)(Oc1cccc(Oc2c(Cl)cc(C(F)(F)F)cc2Cl)c1)[N+](=O)[O-] (stereo not drawn)
8,44 to 45,CC(N)C(O)(c1ccccc1)c1ccccc1 (stereo not drawn)
9,99.5 to 100,O=C(O)CSCc1cc2c(cc1Cc1ccccc1)OCO2
10,107 to 108,CCN1CCC[C@H]1C(N)=O
11,48 to 49.5,CCCCCCCCOC(=O)C=Cc1ccc(N(C)C)cc1
12,129,Cc1ccc(S(=O)(=O)N2[C@@H](CCc3nc(C4CC4)no3)CC[C@H]2c2ccc(F)cc2)cc1 (racemic)
13,70 to 73,O=C1CC2(CCCC2)C1(Cl)CC(Cl)(Cl)Cl (stereo not drawn)
14,93 to 94,OCc1cn(-c2ccccc2)nc1OCc1ccccc1
15,298,CC1(C)OC(=C(C#N)C#N)C(C#N)=C1c1ccc(-c2cn(-c3ccccc3)nn2)cc1
16,162,CC(=O)NCCc1coc2ccc3c(c12)CCCO3
17,169 to 172,COC(=O)c1c2n(c(C)cc1=O)CCCC2
18,132 to 134,CN(c1cc(OCC(=O)O)cc2cc(C3=NCC(CN4CCSCC4)S3)[nH]c12)S(=O)(=O)c1ccccn1 (stereo not drawn)
19,278 to 280,CS(=O)(=O)n1c2cc(O)c(O)cc2c2cc(O)c(O)cc21
20,177 to 180,CC(C)c1cc(Cc2cnc(N)nc2N)cc(C(C)C)c1N
21,252,NC(=O)N1C(=O)C(C(=O)c2cccs2)c2cc(Cl)ncc21 (stereo not drawn)
22,80 to 83,CC(=O)c1cc(F)cc(C#N)c1F
23,180 to 182,Cc1ccc2c(c1)c(=O)[nH]c(=O)n2CCCCN1CCC(OC(c2ccccc2)c2ccccc2)CC1
24,66 to 68,CCCCCc1n[nH]c(CCCCC)n1
25,84 to 85,COc1ccc(CCOCCCCCCNCC(O)c2ccc(O)c(CCO)c2)cc1 (stereo not drawn)

row,SMILES,melting point [°C]
1,C[C@H]1[C@@H](C(C)(C)O)CCN1c1ccc(C#N)cc1C(F)(F)F,98 to 100
2,COc1cc2c(cc1Cl)CC(C)=NN=C2c1ccc(N)cc1,198 to 200
3,Clc1ccc2c(NCCC34C=CCN3CCC4)ccnc2c1 (stereo not drawn),124 to 125
